This passage reports TGI results from PubChem BioAssay (NCI).

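A five-concentration, 48-hour dose response in 96-well plates underlies each endpoint, interpolated linearly between surrounding concentrations. TGI: concentration producing complete growth inhibition.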

Common to all, as to test: NCI tumour cell line growth inhibition, 48 h
The subject of assay [1] is HCT-116 colon.
Assay [2] concerns HL-60(TB) leukemia.
Assay [3] concerns HOP-92 NSCLC.
The test system of assay [4] is HS 578T breast.
Assay [5] has as its system K-562 leukemia.
The subject of assay [6] is LOX IMVI melanoma.
The subject of assay [7] is MALME-3M melanoma.
The test system of assay [8] is NCI-H226 lung.
The test system of assay [9] is NCI-H460 lung.
Assay [10] relates to OVCAR-8 ovarian.
In assay [11] the test system is RXF 393 renal.
For assay [12], the system named is SF-268 CNS.
Assay [13] concerns SN12C renal.
Assay [14] concerns SNB-19 CNS.
For assay [15], the system named is SNB-75 CNS.
Assay [16] concerns TK-10 renal.
In assay [17] the test system is U251 CNS.
The test system of assay [18] is UO-31 renal.

Take `CC(C)[Si]1(C(C)C)OCC2OC(n3c(C(=O)c4ccccc4)cc(=O)[nH]c3=O)CC2O[Si](C(C)C)(C(C)C)O1` (stereo not given): the TGI in assay [1] is 9.95 µM; in [2] it was above 28.6 µM; in [3], 7.14 µM; in assay [4], 5.5 µM; in assay [5] it was above 100 µM; in [6], 3.93 µM. Besides, the TGI in [7] turned out to be 13.1 µM; in assay [8], 5.87 µM; in assay [9], 15.9 µM; in assay [10], 4.43 µM; in assay [11], 7.37 µM; in assay [12] it was 8.26 µM. In addition, the TGI in assay [13] was determined as 5.5 µM; in assay [14], 22.4 µM; in assay [15], 6.7 µM; in [16], 9.23 µM; in [17], 9.85 µM; in assay [18], 6.98 µM.
As for `COc1ccc(NC(=O)CC(=O)NNC(Sc2ccccc2)c2cc(N=Nc3ccc(Br)cc3)ccc2O)cc1` (stereo not given), the TGI in assay [1], in assay [2], in assay [3], in assay [4], in assay [5] and in assay [6] was above 10 µM throughout. Also, the TGI in assay [7], in assay [8], in [9], in [10], in [11] and in [12] was above 10 µM in each case. The TGI in assay [13], in assay [14], in assay [15], in assay [16], in assay [17] and in assay [18] was above 10 µM each time.
`COC1CC(C)([N+](=O)[O-])C(O)C(C)O1` (stereo not given): the TGI in assay [1], in assay [2], in [3], in [4], in [5] and in assay [6] was above 100 µM in each case. Also, the TGI in [7], in assay [8], in assay [9], in assay [10], in assay [11] and in assay [12] was above 100 µM each time. Also, the TGI in assay [13], in assay [14], in assay [15], in assay [16], in assay [17] and in [18] was above 100 µM in each case.
`CCN(CC)c1ccc2cc(C(=O)NCc3ccccc3)c(=N)oc2c1`: the TGI is above 100 µM in assay [1]; above 100 µM in assay [2]; above 100 µM in assay [3]; above 88 µM in assay [4]; above 26 µM in assay [5]; above 100 µM in [6]. Moreover, the TGI in [7] is 63.6 µM; in assay [8], above 100 µM; in assay [9], above 100 µM; in assay [10] it was above 100 µM; in assay [11], above 100 µM; in [12], above 100 µM. Moreover, the TGI in [13] was above 100 µM; in assay [14], above 100 µM; in [15], above 100 µM; in assay [16], above 100 µM; in assay [17], above 100 µM; in assay [18], 97.3 µM.
In the case of `COC(=O)c1nn2ccc3ccccc3c2c1C(=O)OC`, the TGI in assay [1], in [2], in assay [3], in assay [4], in [5] and in assay [6] was above 100 µM in each case. Further, the TGI in assay [7], in [8], in [9], in [10], in assay [11] and in assay [12] was above 100 µM in each case. Moreover, the TGI in assay [13], in assay [14], in [15], in assay [16], in assay [17] and in [18] was above 100 µM each time.
